Experimental data as given in ChEMBL document CHEMBL1148962, “Cytotoxic triterpenoid saponins from Symplocos chinensis” (J Nat Prod, 2004).
Converted amounts (≈) assume the structure as drawn.

Key:
BGC-823 = assay: Cytotoxicity against human BGC823 cells after 72 hrs by MTT assay; assay type: functional, cell-based; settings: BGC-823, 72 h
HCT-8 = assay: Cytotoxicity against human HCT8 cells after 72 hrs by MTT assay; assay type: functional, cell-based; settings: HCT-8, 72 h
KB = assay: Cytotoxicity against human KB cells after 72 hrs by MTT assay; assay type: functional, cell-based
[1] = Selectivity ratio of IC50 for human embryo lung fibroblast to IC50 for human KB cells; assay type: ADME, cell-based; settings: human embryo lung fibroblasts and KB cells
[2] = Cytotoxicity against human embryo lung fibroblast after 72 hrs by MTT assay; assay type: cell-based
A549 = assay: Cytotoxicity against human A549 cells after 72 hrs by MTT assay; assay type: functional, cell-based; settings: A549, 72 h

## CCCCOC(=O)[C@H]1O[C@@H](O[C@H]2CC[C@@]3(C)C(CC[C@]4(C)[C@@H]3CC=C3[C@@H]5CC(C)(C)[C@@H](OC(=O)/C=C(\C)CCC=C(C)C)[C@H](OC(=O)C(C)CC)[C@]5(CO)[C@H](O)[C@H](O)[C@]34C)C2(C)C)[C@H](O[C@@H]2O[C@H](CO)[C@@H](O)[C@H](O)[C@H]2O)[C@@H](O)[C@@H]1O[C@@H]1O[C@@H](CO)[C@H](O)[C@H]1O (some centres not stated)
BGC-823
  IC50: 7.29 µg/mL (≈ 5.75 µM)
HCT-8
  IC50: 2.86 µg/mL (≈ 2.26 µM)

## COC(=O)[C@H]1O[C@@H](O[C@H]2CC[C@@]3(C)C(CC[C@]4(C)[C@@H]3CC=C3[C@@H]5CC(C)(C)[C@@H](O)[C@H](O)[C@]5(CO)[C@H](O)[C@H](O)[C@]34C)C2(C)C)[C@H](O[C@@H]2O[C@H](CO)[C@@H](O)[C@H](O)[C@H]2O)[C@@H](O)[C@@H]1O[C@@H]1O[C@@H](CO)[C@H](O)[C@H]1O (some centres not stated)
KB
  IC50: 0.3 µg/mL (≈ 0.303 µM)
[1]
  selectivity ratio: > 33
[2]
  IC50: > 10 µg/mL
HCT-8
  IC50: 6.8 µg/mL (≈ 6.86 µM)
A549
  IC50: 0.66 µg/mL (≈ 0.666 µM)

## CCCCOC(=O)[C@H]1O[C@@H](O[C@H]2CC[C@@]3(C)C(CC[C@]4(C)[C@@H]3CC=C3[C@@H]5CC(C)(C)C[C@H](OC(=O)/C=C(\C)CCC=C(C)C)[C@]5(CO)[C@H](O)[C@H](O)[C@]34C)C2(C)C)[C@H](O[C@@H]2O[C@H](CO)[C@@H](O)[C@H](O)[C@H]2O)[C@@H](O)[C@@H]1O[C@@H]1O[C@@H](CO)[C@H](O)[C@H]1O (some centres not stated)
HCT-8
  IC50: 4.04 µg/mL (≈ 3.46 µM)

## CCC(C)C(=O)O[C@H]1[C@H](OC(=O)/C=C(\C)CCC=C(C)C)C(C)(C)C[C@H]2C3=CC[C@@H]4[C@@]5(C)CC[C@H](O[C@@H]6O[C@H](C(=O)OC)[C@@H](O[C@@H]7O[C@@H](CO)[C@H](O)[C@H]7O)[C@H](O)[C@H]6O[C@@H]6O[C@H](CO)[C@@H](O)[C@H](O)[C@H]6O)C(C)(C)C5CC[C@@]4(C)[C@]3(C)[C@@H](O)[C@@H](O)[C@]21CO (some centres not stated) [SYMPLOCOSOSIDE A]
KB
  IC50: 1.72 µg/mL (≈ 1.4 µM)
[2]
  IC50: 4.62 µg/mL (≈ 3.77 µM)
HCT-8
  IC50: 4.31 µg/mL (≈ 3.52 µM)
A549
  IC50: 0.67 µg/mL (≈ 0.547 µM)
